Reference: ChEMBL document CHEMBL1201862, “PubChem BioAssay data set” (2004)
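A five-concentration, 48-hour dose response in 96-well plates underlies each endpoint, interpolated linearly between surrounding concentrations. GI50 is the concentration that inhibits growth by half.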 Active and inactive are the calls of the source. Rule as the data show it: active = GI50 up to about 1.1 µM and inactive = higher.

Legend:
Experiment in all cases: NCI tumour cell line growth inhibition, 48 h
786-0 = system: 786-0
A549 = system: A549
ACHN = system: ACHN
CCRF-CEM = system: CCRF-CEM
COLO 205 = system: COLO 205
DMS-114 = system: DMS-114
DMS-273 = system: DMS-273
EKVX = system: EKVX
HCT-116 = system: HCT-116
HCT-15 = system: HCT-15
HL-60 = system: HL-60
HT-29 = system: HT-29
IGROV-1 = system: IGROV-1
K562 = system: K562
KM-20L2 = system: KM-20L2
KM12 = system: KM12
LOX IMVI = system: LOX IMVI
LXFL 529 = system: LXFL 529
M14 = system: M14
M19-MEL = system: M19-MEL
MOLT-4 = system: MOLT-4
Malme-3M = system: Malme-3M
NCI-H226 = system: NCI-H226
NCI-H23 = system: NCI-H23
NCI-H460 = system: NCI-H460
NCI-H522 = system: NCI-H522
OVCAR-3 = system: OVCAR-3
OVCAR-4 = system: OVCAR-4
OVCAR-5 = system: OVCAR-5
OVCAR-8 = system: OVCAR-8
RPMI-8226 = system: RPMI-8226
RXF 393 = system: RXF 393
SF-268 = system: SF-268
SF-295 = system: SF-295
SF-539 = system: SF-539
SK-MEL-28 = system: SK-MEL-28
SK-MEL-2 = system: SK-MEL-2
SK-MEL-5 = system: SK-MEL-5
SN12C = system: SN12C
SNB-19 = system: SNB-19
SNB-75 = system: SNB-75
SNB-78 = system: SNB-78
SR = system: SR
SW-620 = system: SW-620
TK-10 = system: TK-10
U-251 = system: U-251
UACC-62 = system: UACC-62
UO-31 = system: UO-31
XF498 = system: XF498

In the case of `CCOC(=O)c1ncn2c1[nH]c(=O)c1ccccc12`, the GI50 (786-0) is reported as > 100 µM (inactive), the GI50 (A549) is reported as > 100 µM (inactive) and the GI50 (ACHN) is reported as > 100 µM (inactive). For the same compound, the GI50 (CCRF-CEM) was > 100 µM (inactive), the GI50 (COLO 205) was > 100 µM (inactive) and the GI50 (DMS-114) was > 100 µM (inactive). The GI50 (DMS-273) was > 100 µM (inactive), the GI50 (EKVX) was > 100 µM (inactive) and the GI50 (HCT-116) was > 100 µM (inactive). For the same compound, the GI50 (HCT-15) was greater than 100 µM, the GI50 (HL-60) was > 10 µM (inactive) and the GI50 (HT-29) was > 100 µM (inactive). For the same compound, the GI50 (IGROV-1) was > 100 µM (inactive), the GI50 (K562) was > 100 µM (inactive) and the GI50 (KM-20L2) was > 100 µM (inactive). The GI50 (KM12) was > 100 µM (inactive), the GI50 (LOX IMVI) was > 100 µM (inactive) and the GI50 (LXFL 529) was > 100 µM (inactive). The GI50 (M14) was > 100 µM (inactive), the GI50 (M19-MEL) was > 100 µM (inactive) and the GI50 (MOLT-4) was > 100 µM (inactive). For the same compound, the GI50 (Malme-3M) was > 100 µM (inactive), the GI50 (NCI-H226) was > 100 µM (inactive) and the GI50 (NCI-H23) was > 100 µM (inactive). For the same compound, the GI50 (NCI-H460) was > 100 µM (inactive), the GI50 (NCI-H522) was > 100 µM (inactive) and the GI50 (OVCAR-3) was > 100 µM (inactive). For the same compound, the GI50 (OVCAR-4) was > 100 µM (inactive), the GI50 (OVCAR-5) was > 100 µM (inactive) and the GI50 (OVCAR-8) was > 100 µM (inactive). For the same compound, the GI50 (RPMI-8226) was > 100 µM (inactive), the GI50 (RXF 393) was > 100 µM (inactive) and the GI50 (SF-268) was > 100 µM (inactive). For the same compound, the GI50 (SF-295) was > 100 µM (inactive), the GI50 (SF-539) was > 100 µM (inactive) and the GI50 (SK-MEL-28) was > 100 µM (inactive). For the same compound, the GI50 (SK-MEL-2) was > 100 µM (inactive), the GI50 (SK-MEL-5) was > 100 µM (inactive) and the GI50 (SN12C) was > 100 µM (inactive). For the same compound, the GI50 (SNB-19) was > 100 µM (inactive), the GI50 (SNB-75) was 11.9 µM (inactive) and the GI50 (SNB-78) was > 100 µM (inactive). The GI50 (SR) was > 100 µM (inactive), the GI50 (SW-620) was > 100 µM (inactive) and the GI50 (TK-10) was > 100 µM (inactive). The GI50 (U-251) was > 100 µM (inactive), the GI50 (UACC-62) was > 100 µM (inactive) and the GI50 (UO-31) was > 100 µM (inactive). For the same compound, the GI50 (XF498) was > 100 µM (inactive).
